The supplement of paper PMC10307832

Experiments:
Test in all cases: relative viability (nuclei count vs DMSO), 5 days (fraction); higher = more cells survive
[1] = compound: CC(=O)Nc1cccc(-n2c(=O)n(C3CC3)c(=O)c3c(Nc4ccc(I)cc4F)n(C)c(=O)c(C)c32)c1 [Trametinib] + C[C@]1(O)C[C@@H](c2nc(-c3ccc4ccc(-c5ccccc5)nc4c3)c3c(N)nccn32)C1 [Linsitinib] (partner 1 µM)
Method in brief: (§1)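 For relative viability, nuclei counts in treated wells were divided by those in vehicle wells. Lung cancer cell lines had been pin-tool dosed in 1536-well plates the day after seeding and cultured for 5 days, then fixed and stained in one step (final 0.05% Triton X-100, 1% formaldehyde, 1 ug/ml Hoechst) and imaged at 4×. Doses were one drug alone or a fixed anchor-drug dose plus five library-drug doses (not always all listed) in √10 steps, and values are duplicate-plate medians.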

[2] = compound: CC(=O)Nc1cccc(-n2c(=O)n(C3CC3)c(=O)c3c(Nc4ccc(I)cc4F)n(C)c(=O)c(C)c32)c1 [Trametinib] + O=C(c1cc(Cc2n[nH]c(=O)c3ccccc23)ccc1F)N1CCN(C(=O)C2CC2)CC1 [Olaparib] (partner 8 µM)
Method in brief: as §1

[3] = compound: CN1C=C(C2=CC=CC=C21)/C=C\3/C4=C(C=CC=N4)NC3=O + COc1cc2c(Oc3ccc(NC(=O)C4(C(=O)Nc5ccc(F)cc5)CC4)cc3F)ccnc2cc1OCCCN1CCOCC1 [Foretinib] (partner 0.25 µM)
Method in brief: as §1

[4] = compound: CC(=O)Nc1cccc(-n2c(=O)n(C3CC3)c(=O)c3c(Nc4ccc(I)cc4F)n(C)c(=O)c(C)c32)c1 [Trametinib] + CC(=O)c1c(C)c2cnc(Nc3ccc(N4CCNCC4)cn3)nc2n(C2CCCC2)c1=O [Palbociclib] (partner 0.5 µM)
Method in brief: as §1

Row | Cell Line | relative viability ([1]; first compound 0.0025 µM) | relative viability ([1]; first compound 0.007906 µM) | relative viability ([1]; first compound 0.025 µM) | relative viability ([1]; first compound 0.07906 µM) | relative viability ([1]; first compound 0.25 µM) | relative viability ([2]; first compound 0.0025 µM) | relative viability ([2]; first compound 0.007906 µM) | relative viability ([2]; first compound 0.025 µM) | relative viability ([2]; first compound 0.07906 µM) | relative viability ([2]; first compound 0.25 µM) | relative viability ([3]; first compound 0.6325 µM) | relative viability ([3]; first compound 2 µM) | relative viability ([4]; first compound 0.0025 µM) | relative viability ([4]; first compound 0.007906 µM) | relative viability ([4]; first compound 0.025 µM) | relative viability ([4]; first compound 0.07906 µM) | relative viability ([4]; first compound 0.25 µM) | relative viability ([3]; first compound 0.02 µM) | relative viability ([3]; first compound 0.06325 µM) | relative viability ([3]; first compound 0.2 µM)
1 | LK-2 | 0.553 | 0.44 | 0.604 | 0.304 | 0.469 | 0.654 | 0.619 | 0.81 | 0.51 | 0.293 | 1.23 | 1.41 | 0.551 | 0.603 | 0.704 | 0.738 | 0.223 | – | – | –
2 | LOU-NH91 | 0.864 | 0.801 | 0.771 | 0.735 | 0.526 | 0.893 | 0.829 | 0.849 | 0.809 | 0.483 | 0.925 | 0.9 | 0.604 | 0.524 | 0.561 | 0.552 | 0.453 | 0.904 | 0.915 | 0.835
3 | LU99A | 0.593 | 0.522 | 0.441 | 0.47 | 0.291 | 0.292 | 0.277 | 0.261 | 0.263 | 0.247 | 0.845 | 0.835 | 0.401 | 0.436 | 0.335 | 0.355 | 0.243 | 0.637 | 0.699 | 0.759
4 | LXF-289 | 0.878 | 0.818 | 0.698 | 0.628 | 0.563 | 1.01 | 0.906 | 0.803 | 0.756 | 0.665 | 1.05 | 0.977 | 0.526 | 0.508 | 0.423 | 0.429 | 0.379 | 0.943 | 0.957 | 1.04
5 | NCI-H23 | 0.438 | 0.356 | 0.277 | 0.313 | 0.226 | 0.287 | 0.269 | 0.269 | 0.239 | 0.147 | 1.03 | 1.07 | 0.472 | 0.414 | 0.268 | 0.209 | 0.175 | 0.982 | 0.977 | 1.03
6 | NCI-H322M | 0.896 | 0.664 | 0.601 | 0.519 | 0.459 | 0.652 | 0.631 | 0.689 | 0.518 | 0.595 | 0.946 | 1.12 | 0.448 | 0.428 | 0.404 | 0.43 | 0.431 | 0.905 | 0.993 | 0.887
7 | NCI-H358 | 0.587 | 0.438 | 0.399 | 0.332 | 0.28 | 0.47 | 0.303 | 0.186 | 0.185 | 0.127 | 0.637 | 0.687 | 0.133 | 0.122 | 0.147 | 0.129 | 0.117 | 0.693 | 0.622 | 0.815
8 | NCI-H441 | 0.553 | 0.471 | 0.293 | 0.253 | 0.21 | 0.601 | 0.614 | 0.535 | 0.483 | 0.389 | 1.02 | 0.984 | 0.154 | 0.172 | 0.132 | 0.147 | 0.132 | 0.943 | 0.772 | 0.967
9 | NCI-H460 | 0.656 | 0.265 | 0.153 | 0.0822 | 0.0212 | 0.43 | 0.265 | 0.313 | 0.217 | 0.0898 | 0.986 | 0.975 | 0.152 | 0.0859 | 0.0921 | 0.018 | 0.0172 | 1.09 | 0.967 | 1.05
10 | NCI-H520 | 0.947 | 1.02 | 1.02 | 0.905 | 0.664 | 0.353 | 0.317 | 0.355 | 0.306 | 0.302 | 0.717 | 0.937 | 0.217 | 0.238 | 0.199 | 0.158 | 0.232 | 0.639 | 0.773 | 0.847
11 | NCI-H647 | 1.07 | 0.803 | 0.835 | 0.933 | 0.58 | 0.481 | 0.362 | 0.491 | 0.452 | 0.218 | 1.17 | 1.01 | 0.374 | 0.344 | 0.334 | 0.16 | 0.108 | 1.24 | 1.24 | 1.04
12 | NCI-H650 | 1.08 | 0.93 | 0.861 | 0.787 | 0.456 | 0.444 | 0.434 | 0.568 | 0.649 | 0.542 | 1.02 | 1 | 0.421 | 0.469 | 0.487 | 0.535 | 0.374 | 1.05 | 0.938 | –
13 | NCI-H661 | 0.537 | 0.499 | 0.567 | 0.392 | 0.403 | 0.718 | 0.704 | 0.633 | 0.637 | 0.564 | 1.05 | 1.04 | 0.429 | 0.404 | 0.377 | 0.311 | 0.348 | 1.11 | 0.965 | 1.04
14 | NCI-H727 | 0.21 | 0.164 | 0.104 | 0.144 | 0.155 | 0.714 | 0.617 | 0.565 | 0.363 | 0.398 | 0.817 | 0.665 | 0.577 | 0.513 | 0.41 | 0.382 | 0.384 | 0.7 | 0.664 | 0.878
15 | NCI-H838 | 0.912 | 0.867 | – | 0.754 | 0.528 | 0.703 | 0.675 | 0.622 | 0.674 | 0.587 | 0.894 | 0.92 | 0.207 | 0.183 | 0.162 | 0.159 | 0.202 | 0.778 | 0.853 | 1.03
